Among the data in PMC10824666 (Nature Cancer, 2023) are remaining activity values, retold here.

Assay in all cases: biochemical
Holding throughout (design): Eurofins DiscoverX kinase panel, competitive binding assay at 1 uM, percent of DMSO control
Common to all, as to conditions: competitive binding, percent of DMSO control

One experiment concerns the target DAPK1 (Homo sapiens, UniProt P53355). The method in brief: (§1)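 Competitive binding assay across a 96-kinase panel with KIF18A compounds at 1 µM; values given as percentage of control (POC), single experiment.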
The target in another experiment is Fyn (Homo sapiens, UniProt P06241). In outline: as §1
The next experiment deals with INSR (Homo sapiens, UniProt P06213). In outline:
as §1

A further experiment concerns the target MAPKAPK2 (Homo sapiens, UniProt P49137). The method in brief: as §1
In a further experiment the target is T1, PKB α (Homo sapiens, UniProt P31749).
T1 construct: gene AKT1
The method in brief: as §1

The target of the next experiment is RPS6KB1 (Homo sapiens, UniProt P23443). In outline:
as §1

A further experiment concerns the target T2, RSK 1 (Homo sapiens, UniProt Q15418).
T2 construct: gene RPS6KA1
In outline:
as §1

The target of a further experiment is T3, TBK1 (Homo sapiens, UniProt Q9UHD2).
T3 sequence (Q9UHD2 1-729): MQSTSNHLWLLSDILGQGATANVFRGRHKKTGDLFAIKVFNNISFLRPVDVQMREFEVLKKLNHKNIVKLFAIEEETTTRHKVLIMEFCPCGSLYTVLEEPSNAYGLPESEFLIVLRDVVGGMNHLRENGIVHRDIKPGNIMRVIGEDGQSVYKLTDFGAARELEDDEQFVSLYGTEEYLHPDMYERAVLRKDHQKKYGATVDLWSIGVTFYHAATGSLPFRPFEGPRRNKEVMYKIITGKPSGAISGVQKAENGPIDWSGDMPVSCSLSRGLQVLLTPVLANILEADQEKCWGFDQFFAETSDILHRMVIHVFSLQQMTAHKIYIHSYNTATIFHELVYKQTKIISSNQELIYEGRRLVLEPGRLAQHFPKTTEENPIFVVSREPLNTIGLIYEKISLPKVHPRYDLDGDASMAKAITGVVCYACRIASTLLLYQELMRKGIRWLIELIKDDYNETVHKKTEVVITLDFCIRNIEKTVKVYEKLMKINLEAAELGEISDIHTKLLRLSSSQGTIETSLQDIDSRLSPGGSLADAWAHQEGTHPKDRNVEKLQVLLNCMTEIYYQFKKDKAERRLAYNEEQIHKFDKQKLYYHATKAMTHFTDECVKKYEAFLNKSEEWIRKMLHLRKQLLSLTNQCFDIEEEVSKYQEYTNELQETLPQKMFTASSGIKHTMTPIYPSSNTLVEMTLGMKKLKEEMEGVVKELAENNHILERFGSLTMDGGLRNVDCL
The method in brief:
as §1

Another experiment has as its target c-MET (Homo sapiens, UniProt P08581). The method in brief:
as §1

[1] abbreviates: read-out: Kinome Profiling performed by Eurofins DiscoverX / AM-0277, 1.0 µM / POC.
[2] abbreviates: read-out: Kinome Profiling performed by Eurofins DiscoverX / AM-1882, 1.0 µM / POC.
Setting [3] is: read-out: Kinome Profiling performed by Eurofins DiscoverX / AM-5308, 1.0 µM / POC.

Structures are written as SMILES. Like-named read-outs stand apart in the source and are kept apart here.

c-MET, sequence (P08581 whole entry): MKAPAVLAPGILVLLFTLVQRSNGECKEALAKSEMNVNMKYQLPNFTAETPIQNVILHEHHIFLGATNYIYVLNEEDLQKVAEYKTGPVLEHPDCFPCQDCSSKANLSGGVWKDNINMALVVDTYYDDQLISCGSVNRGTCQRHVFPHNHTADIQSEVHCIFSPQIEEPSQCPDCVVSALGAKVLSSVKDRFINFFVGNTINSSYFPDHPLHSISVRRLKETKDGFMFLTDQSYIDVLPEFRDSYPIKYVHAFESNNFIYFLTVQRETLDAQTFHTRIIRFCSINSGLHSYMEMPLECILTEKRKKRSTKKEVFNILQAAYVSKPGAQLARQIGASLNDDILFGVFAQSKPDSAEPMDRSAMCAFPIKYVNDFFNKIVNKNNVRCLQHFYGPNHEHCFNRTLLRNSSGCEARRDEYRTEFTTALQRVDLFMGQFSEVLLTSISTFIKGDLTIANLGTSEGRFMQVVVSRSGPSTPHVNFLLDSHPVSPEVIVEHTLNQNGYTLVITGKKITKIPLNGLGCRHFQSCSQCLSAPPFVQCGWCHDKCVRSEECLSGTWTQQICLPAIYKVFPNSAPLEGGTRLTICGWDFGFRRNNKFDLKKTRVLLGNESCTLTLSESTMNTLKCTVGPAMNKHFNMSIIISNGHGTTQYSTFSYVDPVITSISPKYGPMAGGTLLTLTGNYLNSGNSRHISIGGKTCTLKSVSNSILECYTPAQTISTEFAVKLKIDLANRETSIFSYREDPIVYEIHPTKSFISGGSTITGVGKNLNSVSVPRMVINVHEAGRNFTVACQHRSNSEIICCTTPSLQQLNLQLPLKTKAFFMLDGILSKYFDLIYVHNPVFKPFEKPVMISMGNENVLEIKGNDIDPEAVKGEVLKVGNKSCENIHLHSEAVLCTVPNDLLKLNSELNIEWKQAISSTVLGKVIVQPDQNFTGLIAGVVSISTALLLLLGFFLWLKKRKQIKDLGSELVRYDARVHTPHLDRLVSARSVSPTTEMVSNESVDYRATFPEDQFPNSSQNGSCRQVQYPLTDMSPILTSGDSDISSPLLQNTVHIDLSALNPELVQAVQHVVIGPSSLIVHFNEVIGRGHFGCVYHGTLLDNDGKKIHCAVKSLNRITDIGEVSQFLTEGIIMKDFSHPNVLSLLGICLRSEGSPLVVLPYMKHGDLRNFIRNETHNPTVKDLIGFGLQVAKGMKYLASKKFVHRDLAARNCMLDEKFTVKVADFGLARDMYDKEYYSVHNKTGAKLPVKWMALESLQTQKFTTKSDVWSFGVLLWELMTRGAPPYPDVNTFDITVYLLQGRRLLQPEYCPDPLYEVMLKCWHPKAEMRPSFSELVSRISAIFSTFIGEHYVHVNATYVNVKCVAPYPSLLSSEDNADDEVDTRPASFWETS
T2 sequence (Q15418 whole entry): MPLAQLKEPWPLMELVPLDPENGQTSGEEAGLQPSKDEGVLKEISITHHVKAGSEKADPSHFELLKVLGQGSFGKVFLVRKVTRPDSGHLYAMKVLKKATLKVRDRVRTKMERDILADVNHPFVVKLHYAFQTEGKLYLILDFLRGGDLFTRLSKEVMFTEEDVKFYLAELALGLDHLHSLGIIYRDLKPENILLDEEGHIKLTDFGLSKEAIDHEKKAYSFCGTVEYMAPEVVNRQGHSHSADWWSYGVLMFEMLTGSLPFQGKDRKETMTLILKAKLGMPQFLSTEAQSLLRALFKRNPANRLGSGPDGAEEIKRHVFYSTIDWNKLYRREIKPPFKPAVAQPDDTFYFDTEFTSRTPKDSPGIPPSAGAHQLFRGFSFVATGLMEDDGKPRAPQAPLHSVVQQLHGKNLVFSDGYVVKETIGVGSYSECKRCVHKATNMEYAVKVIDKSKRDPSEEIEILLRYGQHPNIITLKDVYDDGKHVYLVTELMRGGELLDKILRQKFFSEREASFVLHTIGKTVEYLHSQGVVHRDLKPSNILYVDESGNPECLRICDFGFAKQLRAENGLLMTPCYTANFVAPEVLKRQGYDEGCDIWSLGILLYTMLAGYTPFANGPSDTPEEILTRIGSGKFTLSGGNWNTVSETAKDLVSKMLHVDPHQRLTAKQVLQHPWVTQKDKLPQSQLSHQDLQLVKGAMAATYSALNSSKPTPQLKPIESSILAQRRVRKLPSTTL
T1 sequence (P31749 whole entry): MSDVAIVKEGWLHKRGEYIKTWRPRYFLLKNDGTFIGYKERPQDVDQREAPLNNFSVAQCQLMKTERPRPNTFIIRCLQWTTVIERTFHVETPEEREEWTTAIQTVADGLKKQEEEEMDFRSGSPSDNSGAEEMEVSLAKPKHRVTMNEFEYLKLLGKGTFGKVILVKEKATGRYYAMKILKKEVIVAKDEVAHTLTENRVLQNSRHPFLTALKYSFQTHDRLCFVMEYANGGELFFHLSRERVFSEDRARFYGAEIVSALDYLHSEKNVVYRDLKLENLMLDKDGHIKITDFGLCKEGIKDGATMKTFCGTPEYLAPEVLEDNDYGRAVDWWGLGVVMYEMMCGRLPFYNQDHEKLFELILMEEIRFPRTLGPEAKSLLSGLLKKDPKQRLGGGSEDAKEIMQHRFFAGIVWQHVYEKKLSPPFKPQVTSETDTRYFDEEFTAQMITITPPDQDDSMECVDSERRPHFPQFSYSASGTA
MAPKAPK2, sequence (P49137 whole entry): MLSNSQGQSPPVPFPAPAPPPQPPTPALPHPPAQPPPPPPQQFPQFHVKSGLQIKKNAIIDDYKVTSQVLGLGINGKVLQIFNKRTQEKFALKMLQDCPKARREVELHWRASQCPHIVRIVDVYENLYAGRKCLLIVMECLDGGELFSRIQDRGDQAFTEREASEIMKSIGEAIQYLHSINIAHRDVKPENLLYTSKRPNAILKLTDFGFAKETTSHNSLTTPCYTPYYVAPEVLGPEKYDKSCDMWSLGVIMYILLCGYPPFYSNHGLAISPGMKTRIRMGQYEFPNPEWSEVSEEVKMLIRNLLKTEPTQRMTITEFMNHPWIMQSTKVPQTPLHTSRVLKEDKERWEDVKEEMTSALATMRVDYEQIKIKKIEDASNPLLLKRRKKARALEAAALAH
INSR, sequence (P06213 whole entry): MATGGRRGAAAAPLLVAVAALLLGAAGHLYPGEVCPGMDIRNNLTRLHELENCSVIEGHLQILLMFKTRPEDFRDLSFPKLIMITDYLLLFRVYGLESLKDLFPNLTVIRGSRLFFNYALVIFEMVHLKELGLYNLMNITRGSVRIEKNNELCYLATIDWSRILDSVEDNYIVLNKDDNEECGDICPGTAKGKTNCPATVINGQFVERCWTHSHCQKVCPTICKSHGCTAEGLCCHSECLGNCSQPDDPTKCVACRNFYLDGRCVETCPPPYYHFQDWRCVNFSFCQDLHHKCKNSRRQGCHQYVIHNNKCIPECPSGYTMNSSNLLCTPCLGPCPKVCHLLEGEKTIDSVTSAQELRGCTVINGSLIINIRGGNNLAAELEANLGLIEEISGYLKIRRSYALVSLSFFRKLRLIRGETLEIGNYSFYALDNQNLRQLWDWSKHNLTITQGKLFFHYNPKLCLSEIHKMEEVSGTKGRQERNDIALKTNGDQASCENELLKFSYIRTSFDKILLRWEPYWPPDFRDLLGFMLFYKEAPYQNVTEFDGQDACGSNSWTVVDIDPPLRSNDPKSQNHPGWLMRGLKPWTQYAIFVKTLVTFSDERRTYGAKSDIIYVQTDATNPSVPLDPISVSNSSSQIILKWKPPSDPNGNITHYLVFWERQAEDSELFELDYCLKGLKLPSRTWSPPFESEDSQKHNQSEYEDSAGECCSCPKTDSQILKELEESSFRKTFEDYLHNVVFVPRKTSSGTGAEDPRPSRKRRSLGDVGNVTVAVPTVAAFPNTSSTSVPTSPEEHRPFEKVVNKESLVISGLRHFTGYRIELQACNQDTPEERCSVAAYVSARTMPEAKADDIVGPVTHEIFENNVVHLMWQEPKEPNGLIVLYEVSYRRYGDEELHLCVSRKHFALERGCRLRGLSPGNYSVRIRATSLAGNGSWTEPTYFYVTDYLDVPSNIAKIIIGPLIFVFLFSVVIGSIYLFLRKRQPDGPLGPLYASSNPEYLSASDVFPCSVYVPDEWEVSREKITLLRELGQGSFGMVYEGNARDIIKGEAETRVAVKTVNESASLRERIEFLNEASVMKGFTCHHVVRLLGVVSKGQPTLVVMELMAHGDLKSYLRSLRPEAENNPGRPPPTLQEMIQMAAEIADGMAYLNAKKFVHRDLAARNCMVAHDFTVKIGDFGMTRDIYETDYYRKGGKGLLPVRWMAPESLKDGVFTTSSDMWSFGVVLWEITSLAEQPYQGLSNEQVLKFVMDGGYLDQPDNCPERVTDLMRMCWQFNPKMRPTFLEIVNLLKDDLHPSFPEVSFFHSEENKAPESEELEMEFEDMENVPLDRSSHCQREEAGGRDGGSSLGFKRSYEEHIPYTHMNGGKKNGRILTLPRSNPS
Fyn, sequence (P06241 whole entry): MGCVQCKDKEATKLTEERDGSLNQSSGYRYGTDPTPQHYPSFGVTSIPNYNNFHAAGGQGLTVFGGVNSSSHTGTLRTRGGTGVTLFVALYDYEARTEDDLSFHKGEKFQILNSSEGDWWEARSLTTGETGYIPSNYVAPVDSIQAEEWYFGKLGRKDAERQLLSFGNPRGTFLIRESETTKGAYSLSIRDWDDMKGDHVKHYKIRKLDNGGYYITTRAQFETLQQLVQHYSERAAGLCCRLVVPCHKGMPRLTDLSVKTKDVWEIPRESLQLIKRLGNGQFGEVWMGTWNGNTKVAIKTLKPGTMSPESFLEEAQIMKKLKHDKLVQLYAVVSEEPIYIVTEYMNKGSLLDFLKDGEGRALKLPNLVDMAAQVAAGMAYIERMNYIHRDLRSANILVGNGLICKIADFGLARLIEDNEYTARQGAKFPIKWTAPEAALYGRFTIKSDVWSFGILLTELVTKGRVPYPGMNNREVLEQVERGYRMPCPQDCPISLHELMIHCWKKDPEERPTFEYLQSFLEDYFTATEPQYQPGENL

In the case of `CC(C)(CO)Nc1ccc(C(=O)Nc2cccc(S(=O)(=O)C3CCCC3)c2)c(N2CCC3(CC2)CC3)n1` [AM-0277], the remaining activity at 1 µM came out at 100% at DAPK1 (setting [1]); 100% at Fyn (setting [1]); 100% at INSR (setting [1]); 79% on MAPKAPK2 (setting [1]); 94% on PKB α (setting [1]); 100% at RPS6KB1 (setting [1]). Also, the values for the remaining activity at 1 µM at RSK 1 (setting [1]), on TBK1 (setting [1]) and on c-MET (setting [1]) were 100%, 87% and 89%, respectively.

With `CC(C)(C)NS(=O)(=O)c1cccc(NC(=O)c2ccc(S(=O)(=O)NC(C)(C)C)cc2N2CCC3(CC2)CC3)c1` [AM-1882], the remaining activity at 1 µM at DAPK1 (setting [2]) worked out at 87%; on Fyn (setting [2]) it was 85.5%; on INSR (setting [2]), 100%; on MAPKAPK2 (setting [2]), 95.5%; on PKB α (setting [2]) it was 100%; at RPS6KB1 (setting [2]), 61%. The remaining activity at 1 µM on RSK 1 (setting [2]) is 100%; on TBK1 (setting [2]), 82%; on c-MET (setting [2]), 100%.

On to `C[C@@H]1CN(c2cccc(NC(=O)c3ccc(NS(=O)(=O)CCO)cc3N3CCC4(CC3)CC4)n2)CCO1` [AM-5308], for which the remaining activity at 1 µM on DAPK1 (setting [3]) was 89.5%; at Fyn (setting [3]), 92%; on INSR (setting [3]), 100%; at MAPKAPK2 (setting [3]), 95%; on PKB α (setting [3]), 100%; at RPS6KB1 (setting [3]), 94.5%. Besides, the results for the remaining activity at 1 µM at RSK 1 (setting [3]), at TBK1 (setting [3]) and on c-MET (setting [3]) were 91.5%, 100% and 92%, respectively.
